Measured values from article PMC10830420, “Structures, functions and adaptations of the human LINE-1 ORF2 protein” (Nature, 2023).
pIC50: −log10 of the molar value. “Also recorded” adds a separate entry of the source.

How the values were obtained:
[1] = tested on: L1 retrotransposition reporter in HeLa cells; test: LINE-1 dual luciferase retrotransposition assay in HeLa cells; type: cell-based, human; conditions: Homo sapiens; HeLa cells, stable dual luciferase L1 reporter, normalized to cell viability; n = 3 wells; read-out: IC50
ORF2p core = biological target: T1, ORF2p core (Homo sapiens, UniProt O00370); test: Gel-based L1 RT assay, ORF2p core, inhibition by NRTI triphosphates; type: biochemical; conditions: 100 nM dNTP mixture
T1 construct: His6-MBP-3C-ORF2p (238-1061, ORFeus-Hs) in pET41; His6-MBP (3C protease site) (N, cleaved yes); made in house; host or cells: E. coli
Method: ORF2p core was preincubated with a template:primer containing a single site for the incorporation of a given nucleotide analogue. The primer/template sequence shown in the panel a illustrates the case of single incorporation of 3TC, with a single G for incorporation; the incoming template sequence for entecavir and carbovir has a single C, and for d4T a single A, each at position labeled “N”. Reactions were incubated for one minute at 37 °C with a 100 nM dNTP mixture and increasing concentrations of listed inhibitors. IC50 index, fold = IC50 (drug, µM) ÷ [dNTP] […] Fluorescein-labeled dNTPs (here, uracil-TP) are incorporated by ORF2p into a biotinylated primer, here shown against a poly(A) template. Detection is then achieved using FRET with a terbium cryptate labeled streptavidin, and the time-resolved technique and time-delayed emission from terbium cryptate reduces background from other fluorescent chemicals in the mix. In the presence of ORF2p RT inhibitors (RTIs), base incorporation is stopped and FRET signal is lost. […]
ORF2p reverse transcriptase activity assays […]
Gel-based RT activity assays consisted of pr e-incubating RTs with annealed DNA/RNA, DNA/DNA, or RNA/RNA 5’- end- radiolabeled or 5’-end-Cy5- o r FAM-labeled template:primer duplex or hybrid duplex and, where indicated, inhibitor in the presence of 0.1- 1 μ M dNTP or NTP mixture, 0.25 mM EDTA, 50 mM NaCl, and 25 mM Tris (pH 8) for 10 min at 37°C. Labeled nucleic acids were purchased from Dharmacon or IDT. Unless otherwise indicated, 15 μL reactions were initiated by the addition of 1.3 mM MgCl2, incubated for 10 min at 37 °C, and then stopped by the addition of 15 μL of formamide/EDTA (25 mM) mixture and incubated at 95 °C for 10 min. 3 μL reaction samples were subjected to denaturing 8 M urea 20% PAGE to resolve products followed by signal quantification (ImageQuant 5.2, GE Healthcare Bio- Sciences) through phosphorimaging (Amersham Typhoon 5, Cytivia). Scanned gel images are […]
minor products; original images are provided in an Extended Data file. […]

[2] = tested on: cytosolic RNA:DNA hybrids in L1-transfected HeLa and U2-OS cells; test: LINE-1 and RNA:DNA hybrid immunofluorescence; type: cell-based, human; conditions: 50 µM, added at the time of transfection, 24 h
Method: Constructs all include C-terminal 3C-3xFlag tag on ORF2p and are synthetic ORFeus-Hs[63] sequence except where L1RP is indicated (L1 retinitis pigmentosa locus, AF148856, pLD564[17]). Cells were fixed in methanol and stained 24 h post transfection with the indicated constructs. Images are representative from 4 independent experiments. D4T RTI treatment is 50 µM, added at the time of transfection.
Culture Collection ( AT CC); THP1-Dual and THP1- Dual KO-TREX1 cells were from InvivoGen. All cell lines were maintained at 37 °C and 5% CO2 and validated and tested for mycoplasma. All plasmids and affinity reagents are described in Supplementary Tables 4-5 , respectively and available from Addgene at https://www.addgene.org/browse/article/28243724/.
LINE-1 and RNA:DNA hybrid immunofluorescence […]
induced using 200 µM IPTG overnight at 16°C, purified by sequential Ni-NTA affinity, heparin affinity, and gel filtration, and the monodisperse fraction was concentrated to 7 mg/ml. 150,000 HeLa or U2OS cells were plated on 22 mm glass coverslips in 6-well dishes and transfected with 2 µg of plasmid DNA using Lipofectamine 3000 (Thermo) according to the manufacturer’s instructions, with or without 50 µM d4T. […]
Cells were lysed in ice cold RIPA buffer containing 1x protease inhibitor tablet (Thermo), centrifuged for 10 minutes, and clarified lysates were quantified by BCA assay. […]

With `Cc1cn([C@H]2C=C[C@@H](CO)O2)c(=O)[nH]c1=O` [d4T, stavudine] the pIC50 [1] was 5.51, the “IC50 index, fold = IC50 (drug, µM) ÷ [dNTP] (natural counterpart, 0.1 µM)” value (ORF2p core) was 4.1 fold and the pIC50 (ORF2p core; NTP forms of NRTIs, one minute at 37 °C) was 6.22 to 6.40. The “formation of cytosolic RNA:DNA hybrids” value [2] was “ablated; also recorded: inhibited”.
